From patent EP1660440B1, “ACYLOXYALKYL CARBAMATE PRODRUGS, METHODS OF SYNTHESIS AND USE” (priority 2003, dated 2005)
Where two headings read alike, the source gives them in different places.

Experiments:
[1] = human, in vivo; cited from earlier work
physchem = conditions: aqueous buffer
Description: (§1) The stabilities of prodrugs were evaluated in one or more in vitro systems using a variety of tissue preparations following methods known in the art. The chemical stability of prodrugs in aqueous buffers at pH's of 2.0, 7.4 and 8.0 were also measured. […] Each preparation was incubated with test compound at 37°C for one hour. Aliquots (50 µL) were removed at 0, 30, and 60 min and quenched with 0.1 % trifluoroacetic acid in acetonitrile.

in vitro [2] = conditions: rat; for remaining at 1 h, 2 µM: liver s9, % of Prodrug Remaining
Description: as §1

in vitro [3] = conditions: rat, plasma
Description: as §1

Pancreatin stability = format: in vitro ADME, porcine; conditions: pig; for metabolised at 1 h, 5 µM: pH 7.5, 1 % (w/v) pancreatin, read-out: % of Baclofen Released; for remaining at 1 h, 5 µM: read-out: % of Prodrug Remaining
Description: Pancreatin Stability: Stability studies were conducted by incubating prodrug (5 µM) with 1 % (w/v) pancreatin (Sigma, P-1625, from porcine pancreas) in 0.025 M Tris buffer containing 0.5 M NaCl (pH 7.5) at 37 °C for 60 min. The reaction was stopped by addition of 2 volumes of methanol. After centrifugation at 14,000 rpm for 10 min, the supernatant was removed and analyzed by LC/MS/MS.

in vitro [4] = conditions: human; for remaining at 1 h, 2 µM: liver s9, % of Prodrug Remaining
Description: as §1

in vitro [5] = conditions: human, Caco-2
Description: (§2) For example, cellular permeability may be evaluated by examining the flux of a prodrug across a cultured polarized cell monolayer (e.g., Caco-2 cells). Caco-2 cells obtained from continuous culture (passage less than 28) were seeded at high density onto Transwell polycarbonate filters. Cells were maintained with DMEM / 10% fetal calf serum + 0.1 mM nonessential amino acids + 2 mM L-Gln, 5% CO2/ / 95% O2, 37°C until the day of the experiment. Permeability studies were conducted at pH 6.5 apically (in 50 mM MES buffer containing 1 mM CaCl2, 1mM MgCl2, 150 mM NaCl, 3 mM KCl, 1 mM NaH2PO4, 5 mM glucose) and pH 7.4 basolaterally (in Hanks' balanced salt solution containing 10 mM HEPES) in the presence of efflux pump inhibitors (250 µM MK-571, 250 µM Verapamil, 1 mM Ofloxacin). Inserts were placed in 12 or 24 well plates containing buffer and incubated for 30 min at 37C°. Prodrug (200 µM) was added to the apical or basolateral compartment (donor) and concentrations of prodrug and/or released parent drug in the opposite compartment (receiver) were determined at intervals over 1 hour using LC/MS/MS. Values of apparent permeability (Papp) were calculated using the equation: Papp = Vr (dC/dt)//(ACo) [formula]
(§3) Here Vr is the volume of the receiver compartment in mL; dC/dt is the total flux ofprodrug and parent drug (µM/s), determined from the slope of the plot of concentration in the receiver compartment versus time; Co is the initial concentration of prodrug in µM; A is the surface area of the membrane in cm^2.

in vitro [6] = conditions: human, plasma
Description: as §1

in vitro [7] = conditions: human
Description: (§4) For stability studies, prodrug (5 µM) was incubated in Caco-2 homogenate S9 fraction (0.5 mg protein per mL) for 60 min at 37°C. Concentrations of intact prodrug and released baclofen were determined at zero time and 60 minutes using LC/MS/MS.

Caco-2 cells = conditions: human, Caco-2, 200 uM
Description: as §2, §3

[8] = Caco-2 cellular permeability of prodrugs; conditions: human
Description: as §2, §3

[9] = Rat Plasma, 2.0 µM, 37°C, after 60 min, 60 min
Description: as §1

[10] = Rat Liver S9 (0.5 mg/mL), 2.0 µM, NADPH, 37°C, after 60 min, 60 min
Description: as §1

[11] = Human Liver S9 (0.5 mg/mL), 2.0 µM, NADPH, 37°C, after 60 min, 60 min
Description: as §1

[12] = Caco-2 S9 (0.5 mg protein per mL), 5 µM, 37°C, after 60 min, 60 min
Description: as §4

[13] = Human Plasma, 2.0 µM, 37°C, after 60 min, 60 min
Description: as §1

[14] = format: in vivo; conditions: cynomolgus monkeys, intravenous bolus, 1.2 mg/kg
Description: R-Baclofen hydrochloride salt was administered to four male cynomolgus monkeys as an aqueous solution by intravenous bolus injection into the saphenous vein at a dose of 1.2 mg/kg. Blood samples were obtained from all animals at intervals over 24 hours post-dosing. Blood was processed immediately for plasma at 4°C. All plasma samples were subsequently analyzed for R-baclofen using the LC/MS/MS assay described above. The mean R-baclofen exposure AUCinf = 3.6 h.µg/mL.

[15] = pancreatin, 5 µM, pH 7.5, 37 °C, after 60 min
[16] = 1 % (w/v) pancreatin, 5 µM, pH 7.5, 37 °C, after 60 min

Compound	degraded at 1 h (physchem; pH 2) [%]	degraded at 1 h (physchem; pH 7.4) [%]	degraded at 1 h (physchem; pH 8) [%]	metabolised at 1 h, 2 µM (in vitro [2]; s9) [%]	metabolised at 1 h, 2 µM (in vitro [3]) [%]	metabolised at 1 h, 5 µM (Pancreatin stability; [15]) [%]	remaining at 1 h, 5 µM (Pancreatin stability; [16]) [%]	metabolised at 1 h, 2 µM (in vitro [4]; s9) [%]	Papp A→B at 200 µM (in vitro [5]) [×10⁻⁶ cm/s]	Papp B→A at 200 µM (in vitro [5]) [×10⁻⁶ cm/s]	metabolised at 1 h, 2 µM (in vitro [6]) [%]	metabolised at 1 h, 5 µM (in vitro [7]; s9) [%]	degraded at 1 h (physchem; pH 2, % of Baclofen Released) [%]	degraded at 1 h (physchem; pH 7.4, % of Baclofen Released) [%]	degraded at 1 h (physchem; pH 8, % of Baclofen Released) [%]	metabolised at 1 h, 2 µM (in vitro [2]; liver s9) [%]	remaining at 1 h, 2 µM (in vitro [2]) [%]	metabolised at 1 h, 2 µM (in vitro [4]; liver s9) [%]	remaining at 1 h, 2 µM (in vitro [4]) [%]	metabolised at 1 h, 2 µM (in vitro [6]; % of Baclofen Released) [%]	other results
NCC(CC(=O)O)c1ccc(Cl)cc1 (racemic) [Baclofen, (±)-4-Amino-3-(4-chlorophenyl)butanoic acid]	–	–	–	–	–	–	–	–	–	–	–	–	–	–	–	–	–	–	–	–	elimination half-life [1]: 3 to 4 h
CCCC(=O)OCOC(=O)NC[C@H](CC(=O)O)c1ccc(Cl)cc1 [(16), Sodium 4-[(Butanoyloxymethoxy)carbonylamino]-(3R)-(4-chlorophenyl)-butanoate]	0	0	0	100	40	84	1	100	6.1	1.2	20	100	–	–	–	–	–	–	–	–	–
CC(C)C(=O)OCOC(=O)NC[C@H](CC(=O)O)c1ccc(Cl)cc1 [(18), Sodium 4-[(Isobutanoyloxymethoxy)carbonylamino]-(3R)-(4-chlorophenyl)-butanoate]	0	0	0	100	60	91	2	100	6.4	5.6	27	100	–	–	–	–	–	–	–	–	–
CCCC(=O)OC(OC(=O)NC[C@H](CC(=O)O)c1ccc(Cl)cc1)C(C)C (stereo partly shown) [(27)]	–	–	–	–	88	9	71	–	–	–	–	–	0	0	1	89	0	79	8	12	Ratio A-BB-A (Caco-2 cells): 6.9; metabolised at 1 h, 5 µM (in vitro [7]; caco-2 homogenate s9): 67%; Papp A→B at 200 µM [8]: 65 ×10⁻⁶ cm/s; Papp B→A at 200 µM [8]: 9.4 ×10⁻⁶ cm/s
CC(=O)OC(C)OC(=O)NC[C@H](CC(=O)O)c1ccc(Cl)cc1 (stereo partly drawn) [(30), Sodium 4-[(1-Acetoxyethoy)carbonylamino]-(3R)-(4-chlorophenyl)-butanoate]	0	1	3	85	42	9	90	87	8.7	2.3	8	70	–	–	–	–	–	–	–	–	–
CC(C)C(OC(=O)NC[C@H](CC(=O)O)c1ccc(Cl)cc1)OC(=O)C(C)(C)C (stereo partly drawn) [(43), Sodium 4-[(1-Pivaloyloxyisobutoxy)carbonylamino]-(3R)-(4-chlophenyl)-butanoate]	–	–	–	–	29	4	82	–	–	–	–	–	0	0	0	97	3	39	61	2	Ratio A-BB-A (Caco-2 cells): 2.3; metabolised at 1 h, 5 µM (in vitro [7]; caco-2 homogenate s9): 49%; Papp A→B at 200 µM [8]: 42 ×10⁻⁶ cm/s; Papp B→A at 200 µM [8]: 18 ×10⁻⁶ cm/s
CCCC(=O)O[C@H](CCC)OC(=O)NC[C@H](CC(=O)O)c1ccc(Cl)cc1 [(86), Sodium 4-{[(1S)-Butanoyloybutoxy]carbonylamino}-(3R)-(4-chlorophenyl)-butanoate]	–	–	–	–	83	76	4	–	–	–	–	–	0	1	2	92	2	87	2	13	metabolised at 1 h, 5 µM (in vitro [7]; caco-2 homogenate s9): 95%
CC(C)C(=O)O[C@@H](OC(=O)NC[C@H](CC(=O)O)c1ccc(Cl)cc1)C(C)C [(104), 4-{[(1S)-Isobutanoyloxyisobutoxy]carbonylamino}-(3R)-(4-chlorophenyl) -butanoic Acid]	–	–	–	–	–	–	–	–	–	–	–	–	0	0	–	–	–	–	–	–	% of Baclofen Released [9]: 85%; % of Prodrug Remaining [9]: 14%; remaining at 1 h, 5 µM (Pancreatin stability; pancreatin, pH 7.5): 90%; % of Prodrug Remaining (aqueous buffer pH 7.4, 37°C, after 60 min, 60 min): 100%; % of Baclofen Released (aqueous buffer pH 8.0, 37°C, after 60 min, 60 min): 0%; % of Prodrug Remaining (aqueous buffer, pH 2, 60 min): 100/0%; % of Prodrug Remaining (aqueous buffer, pH 8, 60 min): 100/0%; % of Baclofen Released [10]: 97%; % of Prodrug Remaining [10]: 3%; % of Baclofen Released [11]: 97%; % of Prodrug Remaining [11]: 3%; % of Baclofen Released [12]: 83%; % of Prodrug Remaining [12]: 17%; % of Baclofen Released [13]: 2%; % of Prodrug Remaining [13]: 98%
Cl.NC[C@H](CC(=O)O)c1ccc(Cl)cc1 [R-Baclofen hydrochloride salt]	–	–	–	–	–	–	–	–	–	–	–	–	–	–	–	–	–	–	–	–	mean R-baclofen exposure AUCinf [14]: 3600 ng·h/mL
